# Reference: US20030083374A1, “NAALADase inhibitors useful as pharmaceutical compounds and compositions” (priority 1998, published 2003)
# System: rat MCAO model of stroke
# Assay: in vivo assay on brain injury following MCAO
# Parameters: species or system Sprague-Dawley rats
# Method: The control group received Hepes buffered saline.
# Four drug treated groups received Compound 1. For each rat, the treatment was initiated at 60 minutes post middle cerebral artery occlusion (MCAO) by an IV bolus injection which was immediately followed by IV infusion for 4 hours at rate of 0.5 ml/hr. Group 1 (n=9) received a dose of 100 mg/kg IV bolus followed by 20 mg/kg/hr IV infusion for 4 hours. Group 2 (n=11) received a dose of 30 mg/kg IV bolus followed by 6 mg/kg/hr IV infusion for 4 hours. Group 3 (n=9) received a dose of 10 mg/kg IV bolus followed by 2 mg/kg/hr IV infusion for 4 hours. Group 3 rats were also treated at 120 minutes, 180 minutes and 360 minutes post-occlusion. Group 4 (n=8) received a dose of 3 mg/kg IV bolus followed by […] IV infusion for 4 hours.
# Two additional drug treated groups received 2-(3-sulfanylpropyl)pentanedioic acid. For each rat, the treatment was initiated at 120 minutes post middle cerebral artery occlusion (MCAO) by an IV bolus injection which was immediately followed by IV infusion for 4 hours at rate of 0.5 ml/hr. Group 5 received a dose of 30 mg/kg IV bolus followed by 6 mg/kg/hr IV infusion for 4 hours. Group 6 received a dose of 10 mg/kg IV bolus followed by 2 mg/kg/hr IV infusion.
# Twenty two hours following the reperfusion, the rats were euthanized and their brains were removed. Seven coronal sections (2 mm thick) were taken and stained with 1% solution of 2,3,5-triphenyl-tetraxolium chloride (TTC) for 20 minutes and then fixed in 10% formalin. The anterior and posterior surface of the most rostral brain section and the posterior surface of each of the remaining 6 sections were imaged. The quantification of infarct size of each brain was obtained using a computer aided-digital imaging analysis system (LOATS). The brain regions completely lacking TTC-staining were characterized as representative of infarcted tissue. The total infarct volume for each rat was calculated by numeric integration of the respective sequential brain areas.
# Male Sprague-Dawley rats (260-320 g) were used. They were individually housed and allowed free access to food and water. Two days prior to the experiment, they were given restricted food if necessary to maintain the body weight Each rat received two surgeries: femoral vein cannulation for IV infusion and MCAO. During surgeries, the rat was anesthetized with 1.5% halothane delivered in oxygen via an inhalation mask. The body temperature was monitored and regulated at normothermic level using a homeothermic heating system. First, a catheter was inserted into the left femoral vein. Thirty minutes later, the rat was reanesthetized for MCAO surgery. The MCAO was achieved using the endovascular suture method described by Long et al., Stroke, Vol. 20, pp. 84-91 (1989). Specifically, the right external carotid artery (ECA) was exposed, coagulated and transected. A 3-0 monofilament nylon suture with a blunted tip and a coat of 0.05% Poly-1-Lysine was introduced into the proximal stump of the ECA via an arteriotomy. It was advanced 22 mm from the carotid bifurcation until it lodged in the proximal region of the anterior cerebral artery, thereby occluding the origin of the MCA. The rats were allowed to wake up; 2 hours later, the rats were reanesthetized for reperfusion, during which the nylon suture was retracted to the stump of the ECA allowing blood recirculation to the MCA.
compound,measurement,setting,value
"O=C(O)CCC(CCS)C(=O)O (centres unmarked) [Compound 1, 2-(2-sulfanylethyl)pentanedioic acid]",mean total brain infarct volume,"Group 1: 100 mg/kg IV bolus + 20 mg/kg/hr IV infusion 4 hours, 60 minutes post MCAO",123±31 mm^3
same,mean total brain infarct volume,"Group 2: 30 mg/kg IV bolus + 6 mg/kg/hr IV infusion 4 hours, 60 minutes post MCAO",141±78 mm^3
same,mean total brain infarct volume,"Group 3: 10 mg/kg IV bolus + 2 mg/kg/hr IV infusion 4 hours, treated at 60 minutes post-occlusion",152±32 mm^3
same,mean total brain infarct volume,"Group 4: 3 mg/kg IV bolus + 3 mg/kg/hr IV infusion 4 hours, 60 minutes post MCAO",117±22 mm^3
same,neuroprotection in rat MCAO model of stroke,"administered 60, 120, 180 and 360 minutes post-occlusion",neuroprotective
same,% Protect,"dose 1 mg/kg, 60 minutes post MCAO",20%
same,% Protect,"dose 3 mg/kg, 60 minutes post MCAO",52%
same,% Protect,"dose 10 mg/kg, 60 minutes post MCAO",50%
same,% Protect,"dose 10 mg/kg, 120 minutes post MCAO",33%
same,% Protect,"dose 10 mg/kg, 180 minutes post MCAO",47%
same,% Protect,"dose 10 mg/kg, 360 minutes post MCAO",50%
same,% Protect,"dose 30 mg/kg, 60 minutes post MCAO",52%
same,% Protect,"dose 100 mg/kg IV bolus, 60 minutes post MCAO",44%
same,infarct size vs. vehicle treated rats,four Compound 1 treated groups,significantly smaller infarct size
